Laboratory results: patent publication US8263563B2, “Furin inhibitors” (priority 2004, dated 2012)
Ends that are not written are not given here. * marks the point of attachment. Decanoyl = CCCCCCCCCC(=O)*; OPH = not defined here; CH2Cl = ClC*

Test system: lung epethalial and macrophage cells exposed to anthrax toxin (PA and FP59)
Type: cell-based

Substance	Protein Synthesis Inferred From ^35S incorporation [%]
PGluArgValArgArgOPH (PERVRR-{OPH}; not fully specified (some residues); printed as PGluArgValArgArgOPH; reading uncertain) [ERVRR-OPH]	70.9 ± 8.7
decanoyl RVKR-CMK (Decanoyl-RVKR-CH2Cl)	86.9 ± 9.9
